# Assay results published in paper PMC3057995, “Potent Anti-Tumor Effect Generated by a Novel Human Papillomavirus (HPV) Antagonist Peptide Reactivating the pRb/E2F Pathway” (PLoS ONE, 2011).
# Key:
# [1] = system: HPV18 E7; assay: Competitive ELISA with HPV18 E7 anti-serum; assay type: binding; settings: peptides 0.08 µM to 800 µM vs HPV18 E7 anti-serum; mean ± SE, three independent experiments
# [2] = system: COS7; assay: MTT cell viability assay, Cos7; assay type: cell-based, African green monkey; settings: Cos7, HPV-negative; data not shown
# From the text: HPV16-positive SiHa and CaSki cervical carcinoma cells were supplied by China Center for Type Culture Collection (CCTCC). The following cell lines used in this project were from our laboratory: HPV18-positive HeLa cervical carcinoma cells, CNE nasopharyngeal carcinoma cells, HaCat human keratinocyte cells, COS7 (African green monkey SV40-transformed kidney fibroblast cell line), 293T (human kidney epithelial cells), and NIH/3T3 mouse embryonic fibroblast cells. All cells were maintained in a humidified atmosphere of 5% CO2, Dulbecco's modified Eagle's medium (DMEM, pH 7.2), supplemented with 10% fetal calf serum (FCS).
# Cell viability was determined with an MTT assay. Briefly, the cells were seeded into 96-well plates at a density of 4–5×10^3 cells/well. The cells were allowed to recover for 24 h before the medium was replaced with DMEM supplemented with peptides at different concentrations. The solvent of the peptides was set as the control. The peptide-supplemented medium was replaced daily and the respective concentrations were maintained. The cells were subjected to an MTT cell proliferation assay at different time points. The plates were incubated at 37°C for 3 h with the addition of 20 µl/well MTT (5 mg/ml). Untransformed MTT in the solution was removed by aspiration. […] The optical density of the formazan solutions was measured by microplate reader at 540 nm.
# [3] = system: pRb; assay: pRb half-life measurement (cycloheximide, Western blot); assay type: cell-based; settings: SiHa, 80 µM Pep-7 24 h, then 50 µg/ml cycloheximide 0 to 12 h; three experiments
# Procedure: Measurements of pRb half-life were carried out.
# The cells were then treated with 50 µg/ml cycloheximide for 0 to 12 h. The cell lysates collected at different time points were subjected to Western blotting assay as above. Band intensity was used to determine the proteins half-life.
# [4] = system: HPV16E7/pRb interaction; assay: Co-IP of HPV16 E7 and pRb in Cos7 cells; assay type: cell-based; settings: Cos7 co-transfected, 80 µM Pep-7
# Procedure: For Co-IP, Cos-7 cells seeded in 100 mm plates were co-transfected with HPV16E7-pEYFP-N1 and pRb-pcDNA3.1 using the PEI reagent (Sigma-aldich Chemie GmbH, Steinheim, Germany) described previously. […] Lysate supernate prepared as above were incubated with 10 µl rabbit anti-pRb antibody or mouse anti-flag (negative control) antibody and washed protein G agarose beads (Amersham Biosciences, Little Chalfont, UK) overnight at 4°C under continuous agitation. Beads were subsequently washed four times with the lysis buffer. Bound proteins were eluted by boiling in a Laemmli sample buffer and subjected to western blot assay.
# [5] = system: SiHa tumor xenografts; assay: Subcutaneous tumor model in nude mice; assay type: in vivo, mouse (Balb/C-nu/nu); settings: 400 and 800 µg/mouse i.v., 16 days, p<0.01
# Procedure: A subcutaneous tumor model of nude mice was constructed. In brief, six-week-old female nude mice (18±2 g) were subcutaneously inoculated with 1.5×10^7 SiHa cells. When the tumor size reached about 100 mm^2, the mice were randomly divided into four groups with 5 mice each, namely, control group, low-dose group, middle-dose group, and high-dose group. […] The mice were raised for another 3 weeks. Tumor sizes were measured with a caliper every three days and tumor volume was calculated using “volume = length×width^2/2.” At the end of the experiment, all mice were sacrificed and the weights of the detached tumors were measured. Tumor growth inhibition ratio was represented as the tumor weight relative to the control, calculated using the formula, “Relative tumor weight (% of control) = average tumor weight of treatment group/average tumor weight of control group×100%.”
sequence,measurement,setting,value
SACPKGLDWCGG (C&C bridged by disulfide bonds) (disulfide) [Pep-7],binding to HPV18 E7,[1],did not bind to HPV18 E7
same,cell proliferation (MTT),[2],negligible effect
same,pRb half-life,[3],significantly expanded
same,co-immunoprecipitation of HPV16E7 with pRb,[4],HPV16E7 could not be immunoprecipitated by the pRb antibodies
same,anti-tumor efficacy,[5],significant anti-tumor efficacy
